Data set [1] can be described thus: Optical characterization (excitation/emission maxima, molar extinction coefficient). The conditions noted are these: for Max Em (nm, PBS pH 7.4) / Max Em (nm, Seronorm): emission maximum; for Max Em (nm, Seronorm) / Max Ex (nm, Seronorm): Seronorm control serum; for Max Ex (nm, PBS pH 7.4) / Max Ex (nm, Seronorm): excitation maximum. The class given is physicochemical. As to the method: A dual-beam UV-VIS spectrophotometer (Lambda 40, Perkin Elmer) was used to determine the absorbance (Abs) of the compounds of the invention. Emission/excitation (Em/Ex) spectra were carried out on a spectrofluorometer (FluoroLog-3 1IHR-320, Horiba Jobin Yvon) equipped with an F-3018 integrating sphere accessory. The measurements were performed using an excitation wavelength at maximum absorbance of different dyes, and the sample was excited with a 450 W Xenon light Source. Detection was performed by photomultiplier tubes (PMT-NIR) cooled detector or by TBX-04 detector. Dye solutions were carefully prepared to have an absorbance lower than 0.1 (optical densities) to minimize re-absorption phenomena.
The compounds of the invention were characterized in terms of their optical properties in vitro in aqueous medium (i.e., water/PBS pH 7.4) and in a clinical chemistry control serum (Seronorm, Sero SA), mimicking the chemical composition and optical properties of human serum. All solutions were freshly prepared. In particular, the compounds of the invention are characterized by absorption maxima comprised in the range from about 750 nm to 780 nm.
The excitation and emission maxima in PBS and Seronorm and the molar extinction coefficient (ε) in water of representative compounds of formula (I) are shown in Table I in comparison with the known CA-IX targeting fluorescent probe named Hypoxyfluor-1 (HF-1, for instance disclosed in Bioconjugate Chem 2018, 29, 3320-3331). […] Moreover, the extinction coefficients were higher than 200,000 mM^−1 cm^−1 for all compounds.

The next data set has as its target T1, target receptor CA-IX (Homo sapiens, UniProt Q16790).
T1 construct: endogenous in cells
Put plainly: Cell uptake competition with 100x excess acetazolamide. The class given is cell-based. As to conditions: for % uptake in presence of 100x excess acetazolamide: 1 μM, 2 hours at 37° C., residual cellular uptake; for share of cell-associated fluorescence due to non-specific cellular uptake: flow cytometry. As to the method:
The receptor-mediated uptake, i.e. whether the uptake of the probes was mediated by binding to the target receptor CA-IX, was analyzed by performing competition experiments.
(In general: A flow cytometer gives signals particle by particle.)

Data set [2] has as its system hypoxic HT-29 colorectal tumor, subcutaneously induced. Put plainly: In vivo tumor optical imaging (IVIS Spectrum), tumor-to-background ratio. Also on record: species or system mice. The conditions noted are these: 24 hours after intravenous administration, 1 nmol/mouse, tumor vs hind limb muscle. As to the method:
HT-29 cells were collected and washed once with serum-free medium. Five million HT-29 cells were suspended in 0.1 mL serum-free medium and injected subcutaneously in the right flank of 5 weeks old mice. Tumor development was followed by caliper measurement twice a week, from 7 days after inoculation. Tumor volume was calculated according to the formula: (L*W2)/2, where L and W are the maximum length and width of the tumor.
Optical Imaging experiments on HT-29 tumor bearing animals were performed after administration of Reference 1, 2 and 3, and compounds 1 and 2, all at a dose of 1 nmol/mouse in an administration volume of 0.1 mL (corresponding to about 5 mL/kg, considering a 20 g-mouse) at an injection rate of about 1 mL/min, by the IVIS Spectrum system when the tumor reached at least 200 mm^3 volume. For each group, in vivo OI experiments were performed at 0.5, 1, 2, 3, 4, 6 and 24 hours after intravenous administration of the fluorescent compounds. During imaging experiments animals were maintained under gaseous anesthesia. Regions of interest (ROIs) were drawn on the tumor and on a reference background healthy region (hind limb muscle) of the mouse for each fluorescence image at every time point to evaluate signal intensity in the tissues (expressed as Average Radiant Efficiency). The ratio between the fluorescence signal in the tumor and in the background healthy tissue (tumor-to-background ratio, TBR) was then calculated to assess the contrast.
All the compounds of the invention and the References were tested at a dose of 1 nmol/mouse.

Data set [3] relates to HT-29 excised tumors and tissues. The experiment in a line: Ex vivo biodistribution in excised tumors and organs. Set-up: species or system mice. The conditions noted are these: for ex vivo TBR, times higher than respective References 2 and 3: 1 nmol/mouse, 24 hours; for Organ-to-muscle ratio, intestine (mean ± SD) / Organ-to-muscle ratio, kidney (mean ± SD) / Organ-to-muscle ratio, liver (mean ± SD) / Organ-to-muscle ratio, skin (mean ± SD) / Organ-to-muscle ratio, spleen (mean ± SD) / Organ-to-muscle ratio, stomach (mean ± SD): ex vivo, 24 hours after administration; for Organ-to-muscle ratio, intestine (mean ± SD) / Organ-to-muscle ratio, kidney (mean ± SD) / Organ-to-muscle ratio, liver (mean ± SD) / Organ-to-muscle ratio, skin (mean ± SD) / Organ-to-muscle ratio, spleen (mean ± SD) / Organ-to-muscle ratio, stomach (mean ± SD) / ex vivo TBR (mean ± SD), HT-29 tumor: 1 nmol; for ex vivo TBR (mean ± SD), HT-29 tumor: samples collected 24 hours after administration, tumor vs hind limb muscle. As to the method: The ex vivo biodistribution of the representative compounds 1 and 2 and of the reference compounds (at 1 nmol/mouse) was evaluated in HT-29 excised tumors and tissues at the end of the in vivo OI sessions 24 hours post intravenous administration. At the end of the in vivo experiment, animals were euthanized by overdose of gaseous anesthesia followed by cervical dislocation. Tumor tissue, muscle, and other organs of interest were removed for ex vivo fluorescent signal measurements. The fluorescence signal intensity was measured by the IVIS Spectrum system. Regions of interest (ROIs) were drawn around each organ and tumor using the Living Image Software (PerkinElmer) and evaluating signal intensity in the tissues (expressed as Average Radiant Efficiency). The ratio between the fluorescence signal in the organs and tumor was then calculated to assess the contrast to hind limb muscle (representing the background).

A short description of data set [4]: Optical characterization (excitation/emission maxima, molar extinction coefficient). The conditions noted are these: in water. The class given is physicochemical.
Data set [5] deals with recombinant bovine CA-II enzyme (bCAII) (Bos taurus, UniProt P00921). Put plainly: Fluorescence-based dansylamide (DNSA) displacement assay on carbonic anhydrase catalytic site. The conditions noted are these: for KD for bCAII, times lower than corresponding reference compound bearing the same cyanine dye: compound 1 vs Reference 2, compound 2 vs Reference 3.
Chain of recombinant bovine CA-II enzyme (bCAII) (P00921 whole entry): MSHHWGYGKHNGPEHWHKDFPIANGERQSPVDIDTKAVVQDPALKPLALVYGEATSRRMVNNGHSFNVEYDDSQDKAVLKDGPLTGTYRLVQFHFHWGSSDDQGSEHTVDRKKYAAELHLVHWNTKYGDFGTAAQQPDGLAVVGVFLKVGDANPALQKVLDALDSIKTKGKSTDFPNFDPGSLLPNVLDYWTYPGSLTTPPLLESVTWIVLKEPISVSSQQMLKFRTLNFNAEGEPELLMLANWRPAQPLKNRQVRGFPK

The record followed here is US20260009799A1, “CA-IX TARGETING FLUORESCENT PROBES” (BRACCO IMAGING S.P.A., priority 2022, published 2026).

Structures are written as SMILES.

For orientation: Kd means the free concentration of one partner at which half of the binding sites on the other are occupied at equilibrium, for simple one-to-one binding.

On to `CC1(C)C(/C=C/C2=C(Oc3ccc(S(=O)(=O)O)cc3)C(=C/C=C3/N(CCCCCC(=O)NCCCCCCCC(=O)Nc4nnc(S(N)(=O)=O)s4)c4ccc(C(=O)NC[C@H](O)[C@@H](O)[C@H](O)[C@H](O)CO)cc4C3(C)C)/CCC2)=[N+](CCCCS(=O)(=O)[O-])c2ccc(C(=O)NC[C@H](O)[C@@H](O)[C@H](O)[C@H](O)CO)cc21` [Compound 1], for which, in data set [1], the “Max Em (nm, PBS pH 7.4)” value was 806 nm; the “Max Em (nm, Seronorm)” value worked out at 812 nm; the “Max Ex (nm, PBS pH 7.4)” value worked out at 782 nm; the “Max Ex (nm, Seronorm)” value is listed as 792 nm. Besides, at target receptor CA-IX, the “% uptake in presence of 100x excess acetazolamide” value stood at 6.5 ± 2.2% and the “share of cell-associated fluorescence due to non-specific cellular uptake” value is “about 10%”. In addition, in data set [2], the “in vivo TBR (mean ± SD)” value was found to be 5.2 ± 1.0. For the same molecule, in data set [3], the “ex vivo TBR, times higher than respective References 2 and 3” value is “about 1.5 times”; the “Organ-to-muscle ratio, intestine (mean ± SD)” value is 1.8 ± 0.4; the “Organ-to-muscle ratio, kidney (mean ± SD)” value is 6.0 ± 1.1; the “Organ-to-muscle ratio, liver (mean ± SD)” value is 4.2 ± 0.7. Moreover, in data set [3], the “Organ-to-muscle ratio, skin (mean ± SD)” value is 1.2 ± 0.1; the “Organ-to-muscle ratio, spleen (mean ± SD)” value was 0.9 ± 0.2; the “Organ-to-muscle ratio, stomach (mean ± SD)” value was found to be 5.4 ± 0.8; the “ex vivo TBR (mean ± SD), HT-29 tumor” value came to 13.4 ± 2.2. In data set [4], this molecule displayed a molar extinction coefficient (ε) of 250000 M⁻¹ cm⁻¹. Moreover, in data set [5], the Kd was 13.5 ± 1.6 nM and the “KD for bCAII, times lower than corresponding reference compound bearing the same cyanine dye” value stood at 4 times.

As for `CC(CC[N+]1=C(/C=C/C=C/C=C/C=C2/N(CCCCCC(=O)NCCCCCCCC(=O)Nc3nnc(S(N)(=O)=O)s3)c3ccc(C(=O)NC[C@H](O)[C@@H](O)[C@H](O)[C@H](O)CO)cc3C2(C)C)C(C)(C)c2cc(C(=O)NC[C@H](O)[C@@H](O)[C@H](O)[C@H](O)CO)ccc21)S(=O)(=O)[O-]` (stereo partly drawn) [Compound 2], in data set [1], the “Max Em (nm, PBS pH 7.4)” value was 788 nm; the “Max Em (nm, Seronorm)” value was 790 nm; the “Max Ex (nm, PBS pH 7.4)” value worked out at 758 nm; the “Max Ex (nm, Seronorm)” value was 762 nm. Besides, at target receptor CA-IX, the “% uptake in presence of 100x excess acetazolamide” value is given as 11.3 ± 1.7% and the “share of cell-associated fluorescence due to non-specific cellular uptake” value is given as “about 10%”. In addition, the “in vivo TBR (mean ± SD)” value in data set [2] turned out to be 10.1 ± 3.1. For the same molecule, in data set [3], the “ex vivo TBR, times higher than respective References 2 and 3” value is on record as “about 1.5 times”; the “Organ-to-muscle ratio, intestine (mean ± SD)” value turned out to be 1.6 ± 0.3; the “Organ-to-muscle ratio, kidney (mean ± SD)” value worked out at 7.1 ± 1.5; the “Organ-to-muscle ratio, liver (mean ± SD)” value is given as 3.3 ± 0.4. In data set [3], the “Organ-to-muscle ratio, skin (mean ± SD)” value came out at 1.5 ± 0.3; the “Organ-to-muscle ratio, spleen (mean ± SD)” value is 1.0 ± 0.1; the “Organ-to-muscle ratio, stomach (mean ± SD)” value turned out to be 6.8 ± 1.3; the “ex vivo TBR (mean ± SD), HT-29 tumor” value worked out at 23.1 ± 6.7. Also, the molar extinction coefficient (ε) in data set [4] turned out to be 250000 M⁻¹ cm⁻¹. Moreover, in data set [5], the Kd came to 6.1 ± 1.6 nM and the “KD for bCAII, times lower than corresponding reference compound bearing the same cyanine dye” value amounted to 5 times.
